Data on 8 molecules can be found in US8263607B2, “1-substituted tetrahydroisoquinoline compound” (Astellas Pharma Inc., priority 2007, dated 2012).

In test [1] the test system is formalin-induced pain behaviors. Kind of test: Nociceptive pain model (mouse formalin test). Type of test: in vivo, mice (ddY, male). Particulars: 100 mg/kg oral, 30 min before formalin; pain behaviors 15 to 25 min after formalin, vs vehicle. The procedure:
A mouse formalin test was carried out by a modification of the method as described in the literature [Murakami et al., Eur. J. Pharmacol. 419: 175-181 (2001)]. When 20 μL of 2.0% formalin was subcutaneously administered to the paw pads of mice (ddY, male, 5 weeks old), pain behaviors (limb withdrawal and licking behaviors) were induced in the treated animal limbs. From 15 to 25 minutes after the administration of formalin, the time taken for the onset of pain behaviors was measured to thereby evaluate the inhibitory action of the test compound on pain behaviors of animals. The test compound was orally given 30 minutes prior to the administration of formalin. […] Inhibition rate(%)=100−(mean onset time of pain behaviors in test compound-treated group)/(mean onset time of pain behaviors in vehicle-treated group)×100

For test [2], the system named is mechanical allodynia in L5/L6 spinal nerve-ligated rats. Briefly: Neuropathic pain model (antiallodynic effects in L5/L6 spinal nerve-ligated rats, von Frey hair test). As to conditions: 30 to 60 min before measurement, response threshold, ipsilateral 0% / contralateral 100% of vehicle group. Format: in vivo, rats (SD, male). The procedure:
The antiallodynic effects of the compounds of the present invention were confirmed by assessing the analgesic action in L5/L6 spinal nerve-ligated rats. The assessment was carried out by the method of Kim and Chung (Pain 50, 355-363, 1992) with some modifications.
Under pentobarbital anesthesia, the left L5 and L6 spinal nerves of male SD rats (5-6 weeks old) were tightly ligated with silk thread. For the assessment of analgesic action, the von Frey hair test was adopted. That is, the animal's hind paw pad was pricked with hair and the lowest strength of hair for limb withdrawal response was designated as a response threshold (log gram) to mechanical stimulation. […] On the day before the assessment of the test compound, the response threshold before administration of the test compound was measured. The animals were divided into 4 to 5 groups such that mean value differences of response thresholds between groups before administration of the test compound and within-group variation become small. In the assessment of the test compound, the response threshold after administration of the test compound was measured. The test compound was orally administered 30 to 60 minutes before the measurement of the response threshold. […] Recovery rate(%)={(mean of response threshold in test compound-treated group)−(mean of response threshold of ipsilateral paw in vehicle-treated group)}/{(mean of response threshold of contralateral paw in the vehicle-treated group)−(mean of response threshold of ipsilateral paw in the vehicle-treated group)}×100

Test [3] concerns CRD-induced abdominal flexion reflex behaviors. Briefly: Abdominal pain model (CRD-induced abdominal pain in rats). Format: in vivo, rat (Wistar, male). As to conditions: 10 mg/kg oral, 30 min before distension; abdominal flexion reflex behaviors at internal pressure of 45 mmHg. The procedure: Improving effects of the compounds of the present invention on digestive tract pain were confirmed by assay of CRD-induced abdominal pain in rats. The rat CRD-induced abdominal pain assay was carried out by a modification of the method described in the literature [Neurogastroenterol. Motil. 15: 363-369 (2003)]. When stimulation of constant internal pressure is applied to the colorectum of an animal by inflation of a 6-cm long balloon inserted into the anus of the rat (Wistar, male, 250-350 g), abdominal flexion reflex behaviors are induced due to abdominal pain. A frequency of reflex behaviors occurring during distension stimulation of 5 minutes was counted to estimate an abdominal pain-inhibitory action of the test compound. The test compound was orally administered 30 minutes before the initiation of distension stimulation. Estimation of the test compound was made by calculating an inhibition rate (%) of abdominal flexion reflex behaviors on the vehicle-treated group.

Test [4] relates to loperamide-induced bead transit delay. Briefly: Spastic constipation model (loperamide-induced colorectal bead transit delay test in mice). Type of test: in vivo, mouse (ddY, male). As to conditions: 3 mg/kg oral, concurrently with loperamide 0.3 mg/kg s.c.; bead excretion time. The procedure:
A 3-mm diameter glass bead is deeply inserted at a depth of 2 cm into the anus of the mouse (ddY, male, 6 weeks old), and the time taken for excretion of the bead is measured. […] With improving effects on the loperamide-induced bead transit delay, a bowel movement-improving action of the test compound on spastic constipation was evaluated. The test compound was orally administered concurrently with administration of loperamide (30 minutes before the insertion of the bead). The assessment of the test compound was made from calculation of an improvement rate in the bead excretion time of the test compound-treated/loperamide-treated group, by taking the bead excretion time of the non-test compound treated/non-loperamide treated (vehicle-treated/vehicle-treated) group as 100%, and by taking the bead excretion time of the non-test compound treated/loperamide-treated (vehicle-treated/loperamide-treated) group as 0%.

Test [5] has as its system mechanical allodynia in L5/L6 spinal nerve-ligated rats. As to conditions: known; cited from earlier work.

For `O=C(CNCC1(O)CCCCC1)N1CCc2ccccc2[C@@H]1C1CCCCC1` [Example 1, 1-[({2-[(1S)-1-cyclohexyl-3,4-dihydroisoquinolin-2(1H)-yl]-2-oxoethyl}amino)methyl]cyclohexanol], the Inhibition rate in test [1] was 52%. Further, in test [2] (30 mg/kg oral), the “Recovery rate (%) (dose)” value was 95%.

On to `COC[C@@H](O)CNCC(=O)N1CCc2ccccc2[C@@H]1C1CCCCC1` [Example 157], for which the Inhibition rate in test [1] worked out at 52%; in test [3], 59%; in test [4] it was 40%. Besides, in test [2] (30 mg/kg oral), the “Recovery rate (%) (dose)” value stood at 97%.

In the case of `COc1ccc2c(c1)CCN(C(=O)CNCC1(O)CCCCC1)[C@H]2C(C)C` [Example 415], the values for the Inhibition rate in test [3] and in test [4] were 60% and 88%, respectively.

With `COC[C@@H](O)CNCC(=O)N1CCc2ccccc2[C@@H]1Cc1ccccc1C(F)(F)F` [Example 433], the Inhibition rate in test [1] turned out to be 60%; in test [3], 43%; in test [4] it was 73%. The “Recovery rate (%) (dose)” value in test [2] (10 mg/kg oral) is reported as 80%.

Consider `COc1cccc2c1[C@H](c1ccccc1)N(C(=O)CNC[C@@H](C)O)CC2` [Example 435], for which the results for the Inhibition rate in test [3] and in test [4] were 46% and 67%, respectively.

Consider `CCc1ccc2c(c1)[C@H](COC)N(C(=O)CNCC1(O)CCCCC1)CC2` [Example 436], for which the values for the Inhibition rate in test [1], in test [3] and in test [4] were 55%, 56% and 59%, respectively. Moreover, in test [2] (10 mg/kg oral), the “Recovery rate (%) (dose)” value was 156%.

In the case of `COc1cccc2c1[C@H](c1ccccc1)N(C(=O)CNC[C@@H](C)O)CC2` [Example 575], the Inhibition rate in test [1] amounted to 77%. Further, the “Recovery rate (%) (dose)” value in test [2] (10 mg/kg oral) was 83%.

On to `CN1CC[C@]23c4c5ccc(O)c4O[C@H]2[C@@H](O)C=C[C@H]3[C@H]1C5` [morphine], for which the “recovery of mechanical allodynia with treatment of morphine” value in test [5] was “only a partial recovery”.
